Literature values, collected in patent US8645075B2, “Method for predicting organ toxicity and a system thereof” (Strand Life Sciences PVT Ltd., priority 2008, dated 2014).
Like-named read-outs stand apart in the source and are kept apart here. Values belong to the molecule of their own block, whether it stands above or below them.

Legend:
CPT1 = biological target: T1, CPT1 (Homo sapiens, UniProt P50416)
T1 sequence (P50416 1-773): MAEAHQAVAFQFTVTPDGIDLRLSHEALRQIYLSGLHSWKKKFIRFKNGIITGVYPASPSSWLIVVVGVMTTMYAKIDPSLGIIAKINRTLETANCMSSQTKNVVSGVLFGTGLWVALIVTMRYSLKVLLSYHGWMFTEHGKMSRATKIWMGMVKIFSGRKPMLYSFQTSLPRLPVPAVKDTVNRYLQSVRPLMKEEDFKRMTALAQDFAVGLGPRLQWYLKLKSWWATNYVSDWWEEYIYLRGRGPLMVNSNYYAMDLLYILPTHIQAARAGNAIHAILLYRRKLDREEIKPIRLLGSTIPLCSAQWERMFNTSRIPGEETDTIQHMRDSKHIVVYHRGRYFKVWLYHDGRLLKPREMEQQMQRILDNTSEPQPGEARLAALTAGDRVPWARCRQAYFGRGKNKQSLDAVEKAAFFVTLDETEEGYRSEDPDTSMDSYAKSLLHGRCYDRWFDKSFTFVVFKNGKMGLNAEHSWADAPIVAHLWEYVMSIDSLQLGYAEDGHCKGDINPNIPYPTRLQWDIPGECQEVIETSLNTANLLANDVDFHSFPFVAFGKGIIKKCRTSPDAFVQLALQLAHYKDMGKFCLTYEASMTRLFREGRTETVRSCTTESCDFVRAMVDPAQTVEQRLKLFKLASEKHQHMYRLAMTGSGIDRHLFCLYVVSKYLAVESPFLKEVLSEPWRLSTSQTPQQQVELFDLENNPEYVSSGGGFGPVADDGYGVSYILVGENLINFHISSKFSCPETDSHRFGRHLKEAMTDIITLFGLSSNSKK

FoF1 ATPase = conditions: experimental value used for model validation

- Triglyceride accumulation, Experiment (CPT1): 98%
SMILES: C1CCC(C(CC2CCCCN2)C2CCCCC2)CC1 (stereo not drawn) [Perhexilline]

SMILES: C=C(C)[C@]12C[C@@H](C)[C@@]34O[C@](c5ccccc5)(O[C@@H]1[C@@H]3[C@@H]1O[C@]1(CO)[C@@H](O)[C@]1(O)C(=O)C(C)=C[C@H]14)O2 [Daphnetoxin]
- EC value (Energy Charge), Experiment (FoF1 ATPase): 0.52

- Triglyceride accumulation, Experiment (CPT1; experimental value used for model validation): 150%
SMILES: CCCCc1oc2ccccc2c1C(=O)c1cc(I)c(OCCN(CC)CC)c(I)c1 [Amiodarone]
